Measured values as given in patent US20260324646A1, “BIOLOGICAL COMPOSITION FOR USE AGAINST PLANT FUNGICIDAL INFECTIONS” (UNIVERSITA' DEGLI STUDI DI MILANO, priority 2023, published 2026).

Tests used:
S. lycopersicum plants = test: Phytotoxicity to treated plants in the in vivo experiments; parameters: species or system Solanum lycopersicum (cultivar Rio Grande); conditions: BA 3X (4.8 mM), sprayed 24 hours after infection
Method: (§1) The fungal strains were maintained on potato dextrose agar (PDA, Merck kGaA, Darmstadt, Germany) at 4±1° C. and regularly subcultured. Plants of Solanum lycopersicum (cultivar Rio Grande) were sprouted in the greenhouse of the Fondazione dell'Università di Milano Filarete (Milan, Italy) under controlled conditions (T=18/25±1° C. (night/day), humidity ≥90%, photoperiod 16 h light:8 h dark). Determination of in vitro growth inhibition caused by mixtures of CA, BA, CaCl2 and the compositions of the invention was performed by measuring the diameter and calculating the radial growth rate (Kr, mm/h). The diameter growth of the fungi was determined daily, in six repetitions, using the Image J program (Copyright© 1993, 2018, Oracle).
S. lycopersicum plants were infected by […] the spores of the pathogenic fungus Alternaria sp. on the attached leaves and stem. Alternaria sp. spores were obtained by dropping 20 mL of sterile H2O into a culture of the fungus in a Petri dish. The inoculum was calculated after enumerating the spores under light microscope using a counting chamber device and the concentration was 3.1×10^6 spores/mL. 24 hours after infection, the attached leaves were sprayed with the compositions of the invention. The plants were infected and untreated, or treated with CA mixtures or with the compositions of the invention 24 hours after infection with Alternaria sp. […]

[1] = system: Alternaria sp. and B. caroliniana; test: In vitro growth inhibition of phytopathogenic fungi on PDA (radial growth rate, 12-day effect); assay type: cell-based, Alternaria sp.; Botrytis caroliniana; conditions: for radial growth rate (Kr): PDA, 27±1° C.
Method: The phytopathogenic fungus Alternaria sp. was isolated in December 2021 from a vineyard in Oltrepo pavese (Santa Maria della Versa, Pavia, Italy).
In addition to Alternaria sp., experiments were also carried out on the fungus Botrytis caroliniana.
as §1
The fungal cultures were carried out in Petri dishes (6 Well Cell Culture Plates, Sigma-Aldrich). The media treated with the compositions of the invention were inoculated with mycelial caps (diameter 7 mm) of growing active fungal strains (e.g., Alternaria sp. and B. caroliniana). The control cultures are carried out on PDA support and compared with those conducted on CA, BA, CaCl2 and on compositions according to the invention. The media was sterilized at 121° C. for 20 min. Incubation was carried out at 27±1° C. for 12 days in a static incubator (Memmert GmbH+Co. KG, Schwabach, Germany).
The results are shown in FIG. 1 (a) PDA control; b) PDA substrate containing citric acid).

OB(O)O [BA, Boric acid]
Effect (8 days after infection): toxicity for the plant (S. lycopersicum plants): Toxic for the plant | radial growth rate (Kr) ([1]; BA 1X (1.6 mM)): 0.115 mm/h | radial growth rate (Kr) ([1]; BA 3X (4.8 mM)): 0.051 mm/h | Effect (12 days from cultivation) ([1]; BA 5X (8.0 mM)): − | radial growth rate (Kr) ([1]; BA 5X (8.0 mM)): 0.003 mm/h

O=C(O)CC(O)(CC(=O)O)C(=O)O [CA, Citric acid]
radial growth rate (Kr) ([1]; CA 1X (0.01M)): 0.099 mm/h | radial growth rate (Kr) ([1]; CA 2X (0.02M)): 0.028 mm/h | radial growth rate (Kr) ([1]; CA 3X (0.03M)): 0.034 mm/h | radial growth rate (Kr) ([1]; CA 5X (0.05M)): 0.012 mm/h | radial growth rate (Kr) ([1]; CA 7X (0.07M)): 0.020 mm/h | Effect (12 days from cultivation) ([1]; CA 10X (0.1M)): − | radial growth rate (Kr) ([1]; CA 10X (0.1M)): 0.000 mm/h | Effect (12 days from cultivation) ([1]; CA 105X (1M)): − | radial growth rate (Kr) ([1]; CA 105X (1M)): 0.000 mm/h

[Ca+2].[Cl-].[Cl-] [CaCl2, Calcium chloride]
Effect (12 days from cultivation) ([1]; CaCl2 1X (0.45 mM)): +++++ | radial growth rate (Kr) ([1]; CaCl2 1X (0.45 mM)): 0.214 mm/h | Effect (12 days from cultivation) ([1]; CaCl2 2X (0.90 mM)): +++++ | radial growth rate (Kr) ([1]; CaCl2 2X (0.90 mM)): 0.221 mm/h | radial growth rate (Kr) ([1]; CaCl2 3X (1.4 mM)): 0.077 mm/h
